From ChEMBL document CHEMBL3244373, “Stereoselective effects of cis- and trans-cyclopropylbis (dioxopiperazines) related to ICRF-159 on metastases of hamster lung adenocarcinoma” (J Med Chem, 1978) come the findings set out here.

A short description of series [1]: Induction of tumor growth in Syrian hamster LG1002 cells in allografted Syrian golden hamster at 15 mg/kg, ip for every 48 hrs for 4 weeks measured after 48 hrs of last treatment on day 28. It counts as organism-based, Mesocricetus auratus. Also on record: dose 15 mg/kg, route intraperitoneal. To be noted: in vivo.
Series [2] is described as follows: Induction of tumor growth in Syrian hamster LG1002 cells in allografted Syrian golden hamster at 15 mg/kg, ip for every 48 hrs for 4 weeks measured after 48 hrs of last treatment. It counts as organism-based, Mesocricetus auratus. On the set-up: dose 15 mg/kg, route intraperitoneal. The following applies: in vivo.
Series [3] relates to Mesocricetus auratus. Briefly: Antimetastatic activity against Syrian hamster LG1002 cells allografted to Syrian golden hamster LSH/LAK assessed as reduction of lung metastases at 15 mg/kg, ip for every 48 hrs for 4 weeks measured after 48 hrs of last treatment relative to saline control. It is filed as functional, organism-based. On the set-up: dose 15 mg/kg.
Series [4] has as its system Mesocricetus auratus. Description: Antimetastatic activity against Syrian hamster LG1002 cells allografted to Syrian golden hamster LSH/LAK assessed as reduction of lung metastases at 15 mg/kg, ip for every 48 hrs for 4 weeks measured after 48 hrs of last treatment relative to carboxymethylcellulose. It is filed as functional, organism-based. Also on record: dose 15 mg/kg.

Molecules are shown by their SMILES. Active and inactive are the calls of the source. The calls are words filed in the database; no cut-off is given here.

On to `O=C1CN([C@H]2C[C@@H]2N2CC(=O)NC(=O)C2)CC(=O)N1` (relative stereo), for which the Activity in series [1] is over 100 mm2; in series [2] it was “Toxic”. Also, the inhibition entry in the series with Mesocricetus auratus [3] and with Mesocricetus auratus [4] was “inactive” throughout.

Take `O=C1CN([C@@H]2C[C@@H]2N2CC(=O)NC(=O)C2)CC(=O)N1`: the Activity result in series [2] is given as “Non-toxic”. Further, the inhibition entry in the series on Mesocricetus auratus [3] and in the series on Mesocricetus auratus [4] was “Active” throughout.
